Laboratory results taken from patent US11691984B2, “Compounds and methods for DCAF-mediated protein degradation” (The Scripps Research Institute, priority 2018, dated 2023).

Legend:
FLAG-FKBP12_NLS [1] = biological target: T1, FLAG-FKBP12_NLS (Homo sapiens, UniProt P62942); assay: Polyubiquitination of immunoprecipitated FLAG-FKBP12_NLS in HEK293T cells; assay type: cell-based; parameters: expressed in transfected cells; host or cells: HEK293T, (lentiviral pCDH-CMV-MCS-EF1-Puro); details: KB02-SLF 5 μM, MG132 10 μM, 2 hours
Protocol: Cells were collected and lysed in 1% NP-40 lysis buffer (25 mM Tris-HCl pH 7.4, 150 mM NaCl, 10% glycerol, 1% Nonidet P-40) with complete protease inhibitor cocktail (Roche). Cells were vortexed and sonicated for 5 pulses (40%, 4). The supernatant was collected after centrifugation at 16,000 g for 10 min at 4° C. Protein concentration was determined by DC assay (Bio-Rad). Protein lysate was heated at 95° C. for 5 min in 1× Laemmli sample buffer. Proteins were resolved by 12% or 14% Novex Tris-Glycine Mini Gels (Invitrogen) and transferred to polyvinylidene fluoride (PVDF) membrane (0.2 Bio-Rad). The membrane was blocked with 5% BSA in TBST buffer (0.1% Tween 20, 20 mM Tris-HCl 7.6, 150 mM NaCl) at room temperature for 1 h. The antibody was diluted with fresh 5% BSA in TBST buffer (1:10000 dilution for FLAG, HA and β-Actin, 1:1000 dilution for others) and incubated with membrane (1 h room temperature for FLAG, HA and β-Actin, overnight 4° C. for others). Membrane was washed three times with TBST buffer and incubated with secondary antibody (1:5000 dilution in 5% BSA in TBST) at room temperature for 1 h. Membrane was washed three times with TBST buffer. The chemiluminescence signal in membrane was recorded after developing in ECL or ECL plus western blotting detection reagent using CL-XPosure film (Thermo Scientific). Relative band intensities were quantified using ImageJ. […]
Target sequence in this assay (P62942 whole entry): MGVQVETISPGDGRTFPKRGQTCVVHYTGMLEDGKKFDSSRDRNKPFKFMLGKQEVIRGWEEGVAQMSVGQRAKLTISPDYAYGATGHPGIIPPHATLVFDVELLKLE

HEK293T cells = assay: Cell viability assay (Cell Titer Glo); assay type: cell-based, human
Protocol: HEK293T cells were seeded in 96-well clear bottom white plate (Corning) at 3×10^4 cells per well in 100 μL of DMEM medium and grown for 24 h. The cells were treated with 0.625, 1.25, 2.5, 5, 10, 20 and 40 μM of KB02-SLF or KB02-JQ1 (DMSO stock, final DMEM concentration is 0.1% (v/v)) in 100 μL of DMEM medium for 24 h. 50 μL of Cell Titer Glo reagent (Promega) was added to each well and incubate for 10 min at room temperature. The luminescence was read on CLARIOstar (BMG LAB TECH).

FLAG-FKBP12_NLS [2] = biological target: T1, FLAG-FKBP12_NLS; assay: Western blot of FLAG-FKBP12_NLS in DCAF16+/+ and DCAF16−/− HEK293 clones; assay type: cell-based; parameters: expressed in transfected cells; host or cells: HEK293 DCAF16+/+ and DCAF16-/- clones (lentiviral pCDH-CMV-MCS-EF1-Puro)
Protocol: DCAF16 CRISPR knockout HEK293 cell pools were generated by Synthego using nucleofection of Cas9-gRNA ribonucleoprotein (RNP) complex. Editing efficiency 48 h post nucleofection of cell pool was 88%. HEK293 editing cell pools were subjected to single cell sorting in The Flow Cytometry Core Facility at Scripps Research. Individual cell clone was grown in 96-well plate until the cells were confluent. To confirm the editing in DCAF16 gene, genomic DNAs from each clone were extracted using PureLink Genomic DNA Mini Kit (Invitrogen). DCAF16 gene was amplified by PCR and confirmed by DNA sequencing. Indel analysis was performed using ICE analysis from Synthego.
To confirm DCAF16 knockout at the protein level, lentivirus containing FLAG-FKBP12_NLS was used to infect three wild type DCAF16 clones (clone 6, 17, 18) and three DCAF16 knockout clones (clone 3, 4, 22). Clone 6 stably expressing FLAG-FKBP12_NLS was grown in heavy SILAC DMEM medium for 5 generations. The other clones stably expressing FLAG-FKBP12_NLS were grown in light SILAC DMEM medium for 5 generations. All 6 clones were treated with 5 μM KB02-SLF and 10 μM MG132 for 2 h. Cells were collected and analyzed for FLAG-FKBP12_NLS associating proteins using the same method described below. Proteins from clone 6 (heavy labeled) were combined with the other clones (light labeled) separately and identified by LC-MS/MS.
Cells were collected and lysed in 1% NP-40 lysis buffer (25 mM Tris-HCl pH 7.4, 150 mM NaCl, 10% glycerol, 1% Nonidet P-40) with complete protease inhibitor cocktail (Roche). Cells were vortexed and sonicated for 5 pulses (40%, 4). The supernatant was collected after centrifugation at 16,000 g for 10 min at 4° C. Protein concentration was determined by DC assay (Bio-Rad). Protein lysate was heated at 95° C. for 5 min in 1× Laemmli sample buffer. Proteins were resolved by 12% or 14% Novex Tris-Glycine Mini Gels (Invitrogen) and transferred to polyvinylidene fluoride (PVDF) membrane (0.2 Bio-Rad). The membrane was blocked with 5% BSA in TBST buffer (0.1% Tween 20, 20 mM Tris-HCl 7.6, 150 mM NaCl) at room temperature for 1 h. The antibody was diluted with fresh 5% BSA in TBST buffer (1:10000 dilution for FLAG, HA and β-Actin, 1:1000 dilution for others) and incubated with membrane (1 h room temperature for FLAG, HA and β-Actin, overnight 4° C. for others). Membrane was washed three times with TBST buffer and incubated with secondary antibody (1:5000 dilution in 5% BSA in TBST) at room temperature for 1 h. Membrane was washed three times with TBST buffer. The chemiluminescence signal in membrane was recorded after developing in ECL or ECL plus western blotting detection reagent using CL-XPosure film (Thermo Scientific). Relative band intensities were quantified using ImageJ.
Target sequence in this assay (P62942 with tags, fused parts or gaps): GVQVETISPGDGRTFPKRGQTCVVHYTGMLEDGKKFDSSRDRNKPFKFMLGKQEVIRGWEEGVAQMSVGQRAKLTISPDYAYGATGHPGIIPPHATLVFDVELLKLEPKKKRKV

## CCC(C)(C)C(=O)C(=O)N1CCCC[C@H]1C(=O)O[C@H](CCc1ccc(OC)c(OC)c1)c1cccc(NC(=O)CCOCCOCCNC(=O)COc2ccc3c(c2)CCCN3C(=O)CCl)c1 [KB02-SLF, (R)-1-(3-(3-(2-(2-(2-((1-(2-chloroacetyl)-1,2,3,4-tetrahydroquinolin-6-yl)oxy)acetamido)ethoxy)ethoxy)propanamido)phenyl)-3-(3,4-dimethoxyphenyl)propyl (S)-1-(3,3-dimethyl-2-oxopentanoyl)piperidine-2-carboxylate]
FLAG-FKBP12_NLS [1]
  polyubiquitination of FKBP12_NLS after shRNA knockdown of DCAF16: abolished KB02-SLF-induced polyubiquitination of FKBP12_NLS
  polyubiquitination of nuclear FKBP12_NLS: induced polyubiquitination of nuclear FKBP12_NLS
HEK293T cells
  test concentrations with evidence of cytotoxicity: > 10 µM
FLAG-FKBP12_NLS [2]; HEK293 clones 3, 4, 22, 0.2-5 μM, 8 h
  degradation of FKBP12_NLS in DCAF16−/− clones: not in any of the three DCAF16−/− clones
FLAG-FKBP12_NLS [2]; HEK293 clones 6, 17, 18, 0.2-5 μM, 8 h
  degradation of FKBP12_NLS in DCAF16+/+ clones: supported the degradation of FKBP12_NLS in all three DCAF16+/+ clones
FLAG-FKBP12_NLS [2]; KB02-SLF 1.5 μM, 8 hours
  FKBP12_NLS degradation in DCAF16−/− cells expressing C58S-, C173S- or C178S-DCAF16: supported KB02-SLF-induced degradation of FKBP12_NLS
  FKBP12_NLS degradation in DCAF16−/− cells with recombinant HA-DCAF16: restored KB02-SLF-induced FKBP12_NLS degradation
